ChEMBL document CHEMBL4513155, “CO-ADD screening of University of Sydney (Australia) compounds” (2021)
In brackets after ≈: the same amount, converted by molar mass.

Key:
Staphylococcus aureus = assay: microbe, parasite or virus in culture; settings: ATCC 43300, 18 h, ASSAY_TEST Inhibition of Bacterial Growth, detection method Absorption (OD600), MEDIA CAMHB, plate type 384well, NBS, CORNING #3640
Description: Antibacterial activity against Staphylococcus aureus MRSA ATCC 43300 (CO-ADD:GP_020); MIC in CAMBH media, using NBS plates, by OD(600)

Acinetobacter baumannii = assay: microbe, parasite or virus in culture; settings: ATCC 19606, 18 h, ASSAY_TEST Inhibition of Bacterial Growth, detection method Absorption (OD600), MEDIA CAMHB, plate type 384well, NBS, CORNING #3640
Description: Antibacterial activity against Acinetobacter baumannii ATCC 19606 (CO-ADD:GN_034); MIC in CAMBH media using NBS plates, by OD600

Escherichia coli = assay: microbe, parasite or virus in culture; settings: ATCC 25922, 18 h, ASSAY_TEST Inhibition of Bacterial Growth, detection method Absorption (OD600), MEDIA CAMHB, plate type 384well, NBS, CORNING #3640
Description: Antibacterial activity against Escherichia coli ATCC 25922 (CO-ADD:GN_001); MIC in CAMBH media using NBS plates, by OD(600)

Candida albicans = assay: microbe, parasite or virus in culture; settings: ATCC 90028, ASSAY_TEST Inhibition of Fungal Growth, detection method Absorption (OD530), plate type 384well, NBS, CORNING #3640
Description: Antifungal activity against Candida albicans ATCC 90028 (CO-ADD:FG_001); MIC in YNB media using NBS plates, by OD630

Klebsiella pneumoniae = assay: microbe, parasite or virus in culture; settings: ATCC 700603, 18 h, ASSAY_TEST Inhibition of Bacterial Growth, detection method Absorption (OD600), MEDIA CAMHB, plate type 384well, NBS, CORNING #3640
Description: Antibacterial activity against Klebsiella pneumoniae MDR ATCC 70063 (CO-ADD:GN_003); MIC in CAMBH media using NBS plates, by OD(600)

Pseudomonas aeruginosa = assay: microbe, parasite or virus in culture; settings: ATCC 27853, 18 h, ASSAY_TEST Inhibition of Bacterial Growth, detection method Absorption (OD600), MEDIA CAMHB, plate type 384well, NBS, CORNING #3640
Description: Antibacterial activity against Pseudomonas aeruginosa ATCC 27853 (CO-ADD:GN_042); MIC in CAMBH media using NBS plates, by OD(600)

HEK293 = assay: cells; assay type: functional; settings: Homo sapiens, ATCC CRL1573, HEK293; ASSAY_TEST Inhibition of Cell Viability; detection method Resazurin; Fluorescence (ex560/em590); MEDIA DMEM with 10% FBS; plate type 384well; TC; CORNING #3712; time 18 hr

Description for Cryptococcus neoformans: Antifungal activity against Cryptococcus neoformans H99 ATCC 208821 (CO-ADD:FG_002); MIC in YNB media using NBS plates, by Resazurin OD(600-570)

MIC (Staphylococcus aureus) | MIC (Acinetobacter baumannii) | MIC (Escherichia coli) | MIC (Candida albicans) | MIC (Klebsiella pneumoniae) | MIC (Pseudomonas aeruginosa) | MIC (Cryptococcus neoformans) | Structure (SMILES) | CC50 (HEK293)
4 µg/mL | > 32 µg/mL | > 32 µg/mL | > 32 µg/mL | > 32 µg/mL | > 32 µg/mL | 4 µg/mL | [O-][Cl+3]([O-])([O-])O.[O-][Cl+3]([O-])([O-])O.[Zn].c1ccc2c(-n3cc(CN4CCCNCCN(Cc5cn(-c6cccc7ccccc67)nn5)CCCNCC4)nn3)cccc2c1 | 4.89 µg/mL
16 µg/mL | > 32 µg/mL | > 32 µg/mL | > 32 µg/mL | > 32 µg/mL | > 32 µg/mL | 32 µg/mL | CCN1C(=O)c2cccc3c(-c4c[n+](CCN5CCCNCCN(CC[n+]6cc(COc7ccc8c(c7)CC[C@@H]7[C@@H]8CC[C@]8(C)C(=O)CC[C@@H]78)[nH]n6)CCCNCC5)n[nH]4)ccc(c23)C1=O.[O-][Cl+3]([O-])([O-])O.[O-][Cl+3]([O-])([O-])O.[Zn+2] | > 32 µg/mL
> 32 µg/mL | > 32 µg/mL | > 32 µg/mL | 0.5 µg/mL (≈ 1.43 µM) | > 32 µg/mL | > 32 µg/mL | > 32 µg/mL | Clc1ccc(-c2nnc3cncc(OCCc4ccccc4)n23)cc1 | 21.7 µg/mL (≈ 61.9 µM)
